Measured values as given in patent publication US20150197814A1, “EGFR AND KRAS MUTATIONS” (Genentech, Inc., priority 2005, published 2015).

Experiments:
A431 xenografts = A431 xenografts in nude mice; cited from earlier work
HN5 xenografts = HN5 xenografts in nude mice; cited from earlier work
cell cycle = settings: cited from earlier work
[1] = tested on: H1975 tumor cell line (EGFR T790M in combination with L858R); assay: sensitivity of H1975 tumor cell line to treatment
[2] = with paclitaxel, cisplatin, gemcitabine, and doxorubicin; cited from earlier work

In the case of `C#Cc1cccc(Nc2ncnc3cc(OCCOC)c(OCCOC)cc23)c1` [erlotinib], the “growth inhibition of xenografts” value (A431 xenografts) is given as “marked growth inhibition”, the “growth inhibition of xenografts” value (HN5 xenografts) is given as “marked growth inhibition” and the cell cycle effect (cell cycle) is given as “cell cycle arrest at G1”. For the same compound, the “response of tumor cell line to treatment” value [1] was “resistance” and the “interaction with chemotherapy agents” value [2] was “additive interaction”.
